Laboratory results taken from patent US20120302569A1, “PHENYL-THIAZOLYL INHIBITORS OF PRO-MATRIX METALLOPROTEINASE ACTIVATION” (priority 2011, published 2012).
Counter-ions that a name gives are not always drawn.

Assays:
[1] = target: T1, full-length proMMP9(1-707) (SEQ ID NO:1) (Homo sapiens, UniProt P14780, R574P); test: proMMP9/MMP3 P126 Activation Assay; assay type: biochemical; settings: proMMP9(1-707) from HEK293 cells activated by catalytic MMP3
T1 construct: made in house; host or cells: HEK293 (proMMP9, secreted); E. coli (MMP3)
Procedure: proMMP9/MMP3 P126 Activation Assay
The reaction volume was 50 μL. […] Reactivity of residual MMP3 towards P-126 substrate was minimal under these conditions.

[2] = target: T2, proMMP9(67-444;ΔFnII) (SEQ ID NO:5) (Homo sapiens, UniProt P14780, DEL216-390); test: ThermoFluor with proMMP9(67-444;ΔFnII); settings: read-out: proMMP9(67-444; ΔFnII) (SEQ ID NO: 5) binding
T2 construct: start methionine (N); made in house; host or cells: E. coli BL21(DE3) RIL
T2 sequence (P14780 with tags, fused parts or gaps DEL216-390): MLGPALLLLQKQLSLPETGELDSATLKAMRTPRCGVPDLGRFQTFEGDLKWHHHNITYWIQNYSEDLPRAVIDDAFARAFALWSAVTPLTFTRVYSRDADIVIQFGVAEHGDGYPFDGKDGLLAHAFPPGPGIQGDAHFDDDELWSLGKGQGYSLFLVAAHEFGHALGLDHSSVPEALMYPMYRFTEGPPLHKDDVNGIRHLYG
Procedure: (§1) The ThermoFluor® (TF) assay is a 384-well plate-based binding assay that measures thermal stability of proteins (Biomol Screen 2001, 6, 429-40; Biochemistry 2005, 44, 5258-66). The experiments were carried out using instruments available from Johnson & Johnson Pharmaceutical Research & Development, LLC. TF dye used in all experiments was […] (1,8-ANS) (Invitrogen: A-47).
(§2) Compounds were arranged in a pre-dispensed plate (Greiner Bio-one: 781280), wherein compounds were serially diluted in 100% DMSO across 11 columns within a series. Columns 12 and 24 were used as DMSO reference and contained no compound. For multiple compound concentration-response experiments, the compound aliquots (50 nL) were robotically predispensed directly into black 384-well polypropylene PCR microplates (Abgene: TF-0384/k) using a Cartesian Hummingbird liquid handler (DigiLab, Holliston, Mass.). Following compound dispense, protein and dye solutions were added to achieve the final assay volume of 3 μL. The assay solutions were overlayed with 1 μL of silicone oil (Fluka, type DC 200: 85411) to prevent evaporation.
(§3) Assay plates were robotically loaded onto a thermostatically controlled PCR-type thermal block and then heated from 40 to 90° C. at a ramp-rate of 1° C./min for all experiments. Fluorescence was measured by continuous illumination with UV light (Hamamatsu LC6) supplied via fiber optics and filtered through a band-pass filter (380-400 nm; >6 OD cutoff). Fluorescence emission of the entire 384-well plate was detected by measuring light intensity using a CCD camera (Sensys, Roper Scientific) filtered to detect 500±25 nm, resulting in simultaneous and independent readings of all 384 wells. A single image with 20-sec exposure time was collected at each temperature, and the sum of the pixel intensity in a given area of the assay plate was recorded vs temperature and fit to standard equations to yield the Tm (J Biomol Screen 2001, 6, 429-40).
(§4) Thermodynamic parameters necessary for fitting compound binding for each proMMP were estimated by differential scanning calorimetry (DSC) and from ThermoFluor® data. The heat capacity of unfolding for each protein was estimated from the molecular weight and from ThermoFluor® dosing data.
ThermoFluor® with proMMP9(67-444;ΔFnII) (SEQ ID NO:5)
The protein sample preparations had to include a desalting buffer exchange step via a PD-10 gravity column (GE Healthcare). The desalting buffer exchange was performed prior to diluting the protein to the final assay concentration of 3.5 μM proMMP9(67-444;ΔFnII) (SEQ ID NO:5). The concentration of proMMP9(67-444;ΔFnII) (SEQ ID NO:5) was determined spectrophotometrically based on a calculated extinction coefficient of ε280=33900 M^−1cm^−1, a calculated molecular weight of 22.6 kDa, and calculated pI of 5.20. ThermoFluor® reference conditions were defined as follows: 80 μg/mL (3.5 μM) proMMP9(67-444;ΔFnII) (SEQ ID NO:5), 50 μM 1,8-ANS, pH 7.0 Buffer (50 mM HEPES pH 7.0, 100 mM NaCl, 0.001% Tween-20, 2.5 mM MgCl2, 300 μM CaCl2). The thermodynamic parameters for proMMP9(67-444;ΔFnII) (SEQ ID NO:5) are as follows: Tm (° C.)=63 (+/−0.1), ΔUH(Tm) (cal mol^−1)=105000(+/−5000), ΔUS(Tm) (cal mol^−1 K^−1)=450, […].

[3] = target: T3, proMMP9(20-445;ΔFnII) (SEQ ID NO:6) (Homo sapiens, UniProt P14780, DEL216-390); test: ThermoFluor with proMMP9(20-445;ΔFnII); settings: read-out: proMMP9(20-445; ΔFnII) (SEQ ID NO: 6) binding
T3 construct: start methionine (N); made in house; host or cells: E. coli BL21(DE3) RIL
T3 sequence (P14780 with tags, fused parts or gaps DEL216-390): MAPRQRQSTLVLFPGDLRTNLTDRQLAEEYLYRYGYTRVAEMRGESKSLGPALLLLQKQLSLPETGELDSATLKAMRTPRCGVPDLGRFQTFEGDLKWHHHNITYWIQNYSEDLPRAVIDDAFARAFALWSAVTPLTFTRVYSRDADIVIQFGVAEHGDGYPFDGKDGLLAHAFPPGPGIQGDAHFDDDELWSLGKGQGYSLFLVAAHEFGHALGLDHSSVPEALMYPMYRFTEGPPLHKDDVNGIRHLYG
Procedure: as §1, §2, §3, §4
ThermoFluor® with proMMP9(20-445;ΔFnII) (SEQ ID NO:6)
The protein sample preparations included a desalting buffer exchange step via a PD-10 gravity column (GE Healthcare). The desalting buffer exchange was performed prior to diluting the protein to the final assay concentration of 2.8 μM proMMP9(20-445;ΔFnII) (SEQ ID NO:6). The concentration of proMMP9(20-445;ΔFnII) (SEQ ID NO:6) was determined spectrophotometrically based on a calculated extinction coefficient of ε280=39880 M^−1cm^−1, a calculated molecular weight of 28.2 kDa, and calculated pI of 5.5. ThermoFluor® reference conditions were define as follows: 80 μg/mL (2.8 μM) proMMP9(20-445;ΔFnII) (SEQ ID NO:6), 50 μM 1,8-ANS, pH 7.0 Buffer (50 mM HEPES pH 7.0, 100 mM NaCl, 0.001% Tween-20, 2.5 mM MgCl2, 300 μM CaCl2). The thermodynamic parameters for proMMP9(20-445;ΔFnII) (SEQ ID NO:6) are as follows: Tm (° C.)=72 (+/−0.1), ΔUH(Tm) (cal mol^−1)=160000(+/−5000), ΔUS(Tm) (cal mol^−1 K^−1)=434, ΔUCp (cal mol^−1 K^−1)=2400.

T1 sequence (P14780 20-707 R574P): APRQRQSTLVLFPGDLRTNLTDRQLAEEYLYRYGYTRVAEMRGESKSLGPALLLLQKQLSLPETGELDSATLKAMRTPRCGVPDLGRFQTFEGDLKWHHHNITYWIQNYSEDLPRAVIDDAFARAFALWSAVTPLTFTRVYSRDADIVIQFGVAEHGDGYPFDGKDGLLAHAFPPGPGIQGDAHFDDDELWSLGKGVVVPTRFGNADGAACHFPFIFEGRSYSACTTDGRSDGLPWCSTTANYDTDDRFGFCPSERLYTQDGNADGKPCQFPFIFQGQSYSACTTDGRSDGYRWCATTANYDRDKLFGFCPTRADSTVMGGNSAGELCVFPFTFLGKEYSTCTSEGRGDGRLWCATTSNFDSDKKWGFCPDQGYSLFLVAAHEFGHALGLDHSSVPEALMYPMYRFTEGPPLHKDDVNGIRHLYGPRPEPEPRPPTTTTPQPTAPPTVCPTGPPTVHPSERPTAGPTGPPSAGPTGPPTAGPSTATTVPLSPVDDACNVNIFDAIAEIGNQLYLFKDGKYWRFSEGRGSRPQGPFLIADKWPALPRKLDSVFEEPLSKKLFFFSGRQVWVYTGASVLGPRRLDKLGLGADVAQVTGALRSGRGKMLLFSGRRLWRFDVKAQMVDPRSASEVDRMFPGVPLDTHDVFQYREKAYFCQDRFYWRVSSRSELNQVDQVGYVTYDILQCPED

Row | SMILES | IC50 [1] | Kd [2] | Kd [3]
1 | CC(C)Oc1ccc(C(N)=O)cc1Nc1nc(-c2ccc(CN3CCOCC3)cc2)cs1 [Example 58, 4-isopropoxy-3-((4-(4-(morpholinomethyl)phenyl)thiazol-2-yl)amino)benzamide.TFA] | 250 nM | 210 nM | 56 nM
2 | CC(C)Oc1ccc(C(N)=O)cc1Nc1nc(-c2ccc(OCCN3CCC(F)(F)CC3)cc2)cs1 [Example 32, 3-((4-(4-(2-(4,4-Difluoropiperidin-1-yl)ethoxy)phenyl)thiazol-2-yl)amino)-4-isopropoxybenzamide.TFA] | 430 nM | 390 nM | 100 nM
3 | CC(C)Oc1ccc(F)cc1Nc1nc(-c2ccc(OCCN3CCOCC3)cc2)cs1 [Example 65, N-(5-fluoro-2-isopropoxyphenyl)-4-(4-(2-morpholinoethoxy)phenyl)thiazol-2-amine.TFA] | ≥ 20000 nM | 4900 nM | > 19000 nM
4 | CC(C)Oc1ccc(C(N)=O)cc1Nc1nc(-c2ccc(N3CCN(C)CC3)cc2)cs1 [Example 8, 4-Isopropoxy-3-((4-(4-(4-methylpiperazin-1-yl)phenyl)thiazol-2-yl)amino)benzamide.TFA] | 110 nM | 67 nM | 29 nM
5 | CC(C)Oc1ccc(C(N)=O)cc1Nc1nc(-c2ccc(N3CCN(Cc4ccccc4)CC3)cc2)cs1 [Example 11, 3-((4-(4-(4-Benzylpiperazin-1-yl)phenyl)thiazol-2-yl)amino)-4-isopropoxybenzamide.TFA] | 740 nM | 870 nM | 380 nM
6 | CCN1CCN(c2ccc(-c3csc(Nc4cc(C(N)=O)ccc4OC(C)C)n3)cc2)CC1 [Example 9, 3-((4-(4-(4-Ethylpiperazin-1-yl)phenyl)thiazol-2-yl)amino)-4-isopropoxybenzamide.TFA] | 89 nM | 94 nM | 34 nM
7 | CC(C)Oc1ccc(S(N)(=O)=O)cc1Nc1nc(-c2ccc(OCCN3CCC(F)(F)CC3)cc2)cs1 [Example 31, 3-((4-(4-(2-(4,4-Difluoropiperidin-1-yl)ethoxy)phenyl)thiazol-2-yl)amino)-4-isopropoxybenzenesulfonamide.TFA] | 1100 nM | 150 nM | 75 nM
8 | CC(C)Oc1ccc(C(N)=O)cc1Nc1nc(-c2ccc(CN3CC[C@@H](F)C3)cc2)cs1 [Example 52, (R)-3-((4-(4-((3-fluoropyrrolidin-1-yl)methyl)phenyl)thiazol-2-yl)amino)-4-isopropoxybenzamide.TFA] | 110 nM | 87 nM | 27 nM
9 | CC(C)Oc1ccc(C(N)=O)cc1Nc1nc(-c2ccc(OCCN3CCOCC3)cc2)cs1 [Example 29, 4-Isopropoxy-3-((4-(4-(2-morpholinoethoxy)phenyl)thiazol-2-yl)amino)benzamide.TFA] | 150 nM | 100 nM | 28 nM
10 | CCN1CC=C(c2ccc(-c3csc(Nc4cc(S(N)(=O)=O)ccc4OC(C)C)n3)cc2)CC1 [Example 14, 3-((4-(4-(1-Ethyl-1,2,3,6-tetrahydropyridin-4-yl)phenyl)thiazol-2-yl)amino)-4-isopropoxybenzenesulfonamide.TFA] | 34 nM |  | 
11 | CC(C)Oc1ccc(S(N)(=O)=O)cc1Nc1nc(-c2ccc(OCCN3CCC(F)CC3)cc2)cs1 [Example 34, 3-((4-(4-(2-(4-fluoropiperidin-1-yl)ethoxy)phenyl)thiazol-2-yl)amino)-4-isopropoxybenzenesulfonamide.TFA] | 120 nM | 28 nM | 21 nM
12 | CC(C)Oc1ccc(S(N)(=O)=O)cc1Nc1nc(-c2ccc(CN3CCN(C4CC4)CC3)cc2)cs1 [Example 51, 3-((4-(4-((4-cyclopropylpiperazin-1-yl)methyl)phenyl)thiazol-2-yl)amino)-4-isopropoxybenzenesulfonamide.TFA] | 110 nM | 79 nM | 36 nM
13 | CCOc1ccncc1Nc1nc(-c2ccc(C3=CCNCC3)cc2)cs1 [Example 20, N-(4-Ethoxypyridin-3-yl)-4-(4-(1,2,3,6-tetrahydropyridin-4-yl)phenyl)thiazol-2-amine.TFA] | 92 nM | 69 nM | 380 nM
14 | CCOc1ccncc1Nc1nc(-c2ccc(OCCN3CCC(F)CC3)cc2)cs1 [Example 36, N-(4-ethoxypyridin-3-yl)-4-(4-(2-(4-fluoropiperidin-1-yl)ethoxy)phenyl)thiazol-2-amine.TFA] | 92 nM | 96 nM | 1800 nM
15 | CC(C)Oc1ccc(S(N)(=O)=O)cc1Nc1nc(-c2ccc(C3CCNCC3)cc2)cs1 [Example 24, 4-Isopropoxy-3-((4-(4-(piperidin-4-yl)phenyl)thiazol-2-yl)amino)benzenesulfonamide.TFA] | 130 nM |  | 
16 | CC(C)Oc1ccc(S(N)(=O)=O)cc1Nc1nc(-c2ccc(C3CCN(C(C)C)CC3)cc2)cs1 [Example 27, 4-Isopropoxy-3-((4-(4-(1-isopropylpiperidin-4-yl)phenyl)thiazol-2-yl)amino)benzenesulfonamide.TFA] | 64 nM |  | 
17 | CC(C)Oc1ccc(S(N)(=O)=O)cc1Nc1nc(-c2ccc(N3CCN(C(C)C)CC3)cc2)cs1 [Example 5, 4-Isopropoxy-3-((4-(4-(4-isopropylpiperazin-1-yl)phenyl)thiazol-2-yl)amino)benzenesulfonamide.TFA] | 130 nM |  | 
